Test results: patent US20080241281A1, “Compositions & methods for activation and inhibition of Staphylococcus aureus biofilm development” (priority 2007, published 2008)

What was measured:
[1] = test system: several cell lines (human)
sweet taste = settings: cited from earlier work
rat chorda tympani nerve = settings: glucose, sucrose, glycine and saccharine; known in the art; cited from earlier work
S. aureus = S. aureus growth (OD600) and cell viability on agar plates; assay type: cell-based, Staphylococcus aureus; settings: growth in TSB with or without substance
Method: (§1) At different time points, cells were collected and assayed for biofilm growth. Unbound cells were aspirated and saved for measuring the growth at OD600 and cell viability on agar plates. Loosely bound cells were removed by washing with phosphate buffer saline (PBS) twice and adherent biofilm cells were stained with 1% crystal violet (CV) stain. After extensive washing, stained cells were air dried, solubilized in dimethylsulfoxide (DMSO) and lysates (100 μl) were measured by a plate reader at OD590.

[2] = test system: S. aureus (NCTC-8325-4) biofilm; experiment: S. aureus biofilm assay (microtiter wells, crystal violet stain, OD590); assay type: cell-based, Staphylococcus aureus
Method: In the S. aureus biofilm assay, polystyrene microtiter wells and glass tubes well known in the art were used to develop biofilm in vitro. Fractions dissolved in water were added to a sterile tryptic soy broth (TSB, Difco, Detroit) medium at a final concentration between 0.001-0.01% (w/v). Biofilm was developed and measured according to methods well known in the art. Briefly, a single colony of S. aureus (NCTC-8325-4) (or a clinical isolate) grown on blood agar plate was inoculated into the TSB liquid medium and grown in a shaking water bath at 37° C. until it reached an optical density (OD600) of 0.6-0.8. An aliquot was further diluted in TSB to an OD of 0.05 and 0.1 ml was dispensed into sterile microtiter wells. Solubilized SSF were added to the wells (1 μl/ml from 0.1% of filter sterile stock in water). Cells without SSF served as a control. The microtiter plate was incubated at 37° C. with gentle shaking for up to 16 hours.
as §1

[3] = test system: poly N-acetylglucosamine (PNAG); experiment: PNAG western blot of S. aureus biofilm cells (anti-PNAG rabbit polyclonal antibody); assay type: cell-based, Staphylococcus aureus; settings: for PNAG synthesis in the presence of activator: LBBI-1 and LBBA-1 incubated together during biofilm growth

What does the source list for gurmarin [LBBI-1]?
toxicity to cell lines [1]: non-toxic; sweet taste suppression in humans (sweet taste): no apparent effect; response of the rat chorda tympani nerve to sweet-taste stimuli (rat chorda tympani nerve): suppress the response; S. aureus cell growth and viability (S. aureus): did not affect the growth of S. aureus; biofilm inhibitory property ([2]; 2 μg/ml concentration, microtiter biofilm assay): confirmed; S. aureus biofilm growth ([2]; FIG. 3B): prevents S. aureus biofilm growth; biofilm production in the presence of LBBA-1 ([2]; in the presence of LBBA-1): can inhibit biofilm production; PNAG synthesis in the presence of activator [3]: almost abolished; PNAG synthesis in the presence of activator ([3]; listed as biofilm inhibitor): suppresses the production of PNAG; PNAG production ([3]; western blot, S. aureus biofilm): significantly less PNAG production
